The source made the active and inactive calls.
Columns and labels:
[1] = insulin promoter down-regulators in MIN6 cells, imaging, high-content screening, mouse beta cells (AID 1628); format: functional
[2] = growth suppression of PTEN-null colon cells, dose response, cell-based, HCT116 PTEN knockout (AID 1047); format: functional;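 note: HCT116 colon tumor cells with PTEN knocked out; cells exposed to compound for 60 hours before readout; potency for loss of cell viability measured by luminescence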
[3] = inhibitors of PGC1a acetylation in cells, dose response, cell-based, cherry-picked samples (AID 720514); format: functional;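 note: potency may reflect raised or lowered acetylation signal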
[4] = cytotoxicity in MIN6 insulinoma cells, dose response, cytotoxicity control, cell-based, mouse insulinoma (AID 2122); format: functional;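 note: confirmatory high-throughput counterscreen run to flag cytotoxic compounds; mouse MIN-6 beta cells carrying an insulin promoter eGFP reporter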
[5] = growth suppression of beta-catenin-knockout colon cells, dose response, cell-based, HCT116, human colon tumor (AID 1045); format: functional;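 note: HCT116 colon tumor cells with beta catenin knocked out; cells exposed to compound for 60 hours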
Major prion protein = Major prion protein (Homo sapiens, UniProt P04156); format: functional, cell-based
[6] = Shn3 3'UTR reporter inhibitors, dose response, cell-based, Clone20 osteoblasts, firefly luciferase, cherry-picked (AID 624132); format: functional;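 note: firefly luciferase luminescence from reporter carrying the Shn3 3'UTR in osteoblasts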
[7] = human group III sPLA2 inhibitors, dose response, biochemical, QFRET, IC50 (AID 743457);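 note: green fluorescence rise as the enzyme cleaves BODIPY PC-A2 in liposomes; potency for inhibition of the enzyme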
[8] = control 3'UTR Renilla luciferase suppression, dose response, counter-screen for Shn3 inhibitor project, cell-based, Clone20-Shn3RL, cherry-picked (AID 624133); format: functional
[9] = molecular target: T1, Oxysterols receptor LXR-beta (Homo sapiens, UniProt P55055); format: functional, cell-based;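 note: agonist activity at LXR measured by a cell-based luminescence readout across a dose range, run as a counterscreen for daf-12 agonists; HEK293 cells with Gal4-LXR fusion and GAL4-driven luciferase reporter; potency for activation of Gal4-LXR reporter so compounds are agonists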
T1 sequence (P55055 whole entry): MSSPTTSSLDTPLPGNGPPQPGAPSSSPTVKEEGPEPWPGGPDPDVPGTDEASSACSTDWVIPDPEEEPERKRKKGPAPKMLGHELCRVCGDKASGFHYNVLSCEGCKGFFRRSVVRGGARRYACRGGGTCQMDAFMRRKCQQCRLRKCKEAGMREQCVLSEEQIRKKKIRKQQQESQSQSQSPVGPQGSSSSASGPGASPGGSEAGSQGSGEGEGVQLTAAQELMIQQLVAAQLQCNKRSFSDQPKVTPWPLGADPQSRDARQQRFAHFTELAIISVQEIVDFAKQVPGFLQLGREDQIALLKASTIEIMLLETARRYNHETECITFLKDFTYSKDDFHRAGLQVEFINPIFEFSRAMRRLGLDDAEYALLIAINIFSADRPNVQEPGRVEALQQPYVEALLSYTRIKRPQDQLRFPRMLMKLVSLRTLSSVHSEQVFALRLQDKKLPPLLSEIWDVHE

[10] = HepG2 cell cytotoxicity, dose response, cytotoxicity control, ATP luminescence, cherry-pick, activator set 2 (AID 1053143); format: functional, cell-based
[11] = molecular target: Glyceraldehyde-3-phosphate dehydrogenase (Homo sapiens, UniProt P04406)
[12] = M. tuberculosis H37Rv growth inhibitors, H37Rv strain (AID 1626); format: functional
[13] = MC4R antagonists, dose response, counter-screen for LGR2 antagonist project, cell-based, plate reader, cherry pick (AID 743444); format: functional;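 note: transfected HEK 293 cells stimulated with alpha-MSH peptide; potency of inhibitors of the alpha-MSH evoked signal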
[14] = A549 cell cytotoxicity, dose response, cytotoxicity control, plate reader, cherry-pick, antagonist series (AID 743412); format: functional, cell-based
[15] = LGR2 antagonists, dose response, cell-based, HEK293, CRE-luciferase reporter, cherry pick, set 2 (AID 743343); format: functional;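 note: transfected cells were stimulated with diluted bursicon conditioned medium after compound addition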
[16] = Luminescence Cell-Based Dose Response HTS to Identify Activators of Luciferase Translation or Activity in H4 […] Cells. [Related pubchem assays: 1829 (Project Summary), 1814 (Primary HTS)]; format: functional
H4 = assay: Luminescence Cell-Based Dose Response HTS to Identify Activators of 5'UTR Stem-Loop Driven Prion Protein mRNA Translation in H4 Neuroglioblastoma Cells. [Related pubchem assays: 1829 (Project Summary), 1814 (Primary HTS)]; format: functional; details: Homo sapiens
Bcl-2-like protein 10 = molecular target: T2, Bcl-2-like protein 10 (Homo sapiens, UniProt Q9HD36); assay: displacers of TR3 peptide from Bcl-B, primary screen, selectivity assay for Bfl-1 inhibitor project, biochemical, fluorescence polarization, FITC-TR3 peptide (AID 748);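 note: fluorescence polarization from a fluorescein-labelled TR3 peptide binding purified Bcl-B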
T2 sequence (Q9HD36 whole entry): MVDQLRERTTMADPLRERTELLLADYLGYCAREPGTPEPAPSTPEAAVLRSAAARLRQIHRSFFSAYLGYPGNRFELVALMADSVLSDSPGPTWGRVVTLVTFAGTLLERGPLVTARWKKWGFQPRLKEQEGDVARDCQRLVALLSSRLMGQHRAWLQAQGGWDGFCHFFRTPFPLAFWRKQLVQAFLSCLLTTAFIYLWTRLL

[17] = Luminescence Cell-Based Dose Confirmation HTS to Identify Activators of 5'UTR Stem-Loop Driven Alpha-Synuclein mRNA Translation in H4 Neuroglioblastoma Cells. [Related pubchem assays: 1829 (Project Summary), 1814 (Primary HTS)]; format: functional
[18] = molecular target: T3, Rac GTPase-activating protein 1 (Homo sapiens, UniProt Q9H0H5); assay: MgcRacGAP GTPase-activating activity inhibitors, confirmation, biochemical, ADP Hunter fluorescence, primary and confirmatory (AID 624330); format: functional
T3 sequence (Q9H0H5 whole entry): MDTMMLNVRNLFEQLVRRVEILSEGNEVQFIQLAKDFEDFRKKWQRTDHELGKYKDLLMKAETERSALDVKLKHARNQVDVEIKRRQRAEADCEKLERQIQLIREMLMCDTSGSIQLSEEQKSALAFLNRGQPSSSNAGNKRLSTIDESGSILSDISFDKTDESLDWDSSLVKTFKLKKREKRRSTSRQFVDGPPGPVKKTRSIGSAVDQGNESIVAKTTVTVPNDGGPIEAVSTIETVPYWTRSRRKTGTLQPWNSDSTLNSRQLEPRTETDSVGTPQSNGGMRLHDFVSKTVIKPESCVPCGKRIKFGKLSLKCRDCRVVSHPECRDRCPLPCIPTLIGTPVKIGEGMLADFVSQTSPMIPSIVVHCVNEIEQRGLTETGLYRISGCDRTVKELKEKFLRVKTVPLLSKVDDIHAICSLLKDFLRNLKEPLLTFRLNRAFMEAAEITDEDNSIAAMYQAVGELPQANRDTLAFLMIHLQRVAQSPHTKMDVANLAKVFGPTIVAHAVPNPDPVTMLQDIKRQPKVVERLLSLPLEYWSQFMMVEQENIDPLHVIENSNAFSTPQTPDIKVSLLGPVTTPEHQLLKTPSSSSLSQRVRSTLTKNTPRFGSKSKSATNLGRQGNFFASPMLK

[19] = molecular target: T4, Calpain-2 catalytic subunit (Sus scrofa, UniProt P43367); assay: pig calpain II inhibitor potency, dose response, biochemical, fluorogenic peptide substrate (AID 1420); format: functional
T4 sequence (P43367 whole entry): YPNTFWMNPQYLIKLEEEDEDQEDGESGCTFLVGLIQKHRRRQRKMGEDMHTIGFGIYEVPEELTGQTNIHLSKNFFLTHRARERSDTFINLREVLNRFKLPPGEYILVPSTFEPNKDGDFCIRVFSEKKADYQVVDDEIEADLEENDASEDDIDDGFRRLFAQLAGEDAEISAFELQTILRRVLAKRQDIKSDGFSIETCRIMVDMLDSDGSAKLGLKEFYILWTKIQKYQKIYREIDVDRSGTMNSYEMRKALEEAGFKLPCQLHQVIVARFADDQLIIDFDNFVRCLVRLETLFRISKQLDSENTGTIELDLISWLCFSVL

## COc1ccc(C(NC(=O)c2c(F)c(F)c(F)c(F)c2F)c2ccccc2)cc1 (stereo unspecified)
[1]
  IC50: 1.79 µM (active)
[2]
  EC50: 27.4 µM (active)
[3]
  AC50: 4.77 µM (active)
[4]
  IC50: 1.7 µM (active)
[5]
  EC50: 16.8 µM (active)

## Cc1nc2ccc(Br)cc2c(-c2ccccc2)c1C(=O)O
cells
  IC50: > 138 µM (inactive)
Major prion protein
  IC50: 5.47 µM (active)

## O=C1/C(=C/c2ccccn2)SC(=S)N1Nc1ncc(C(F)(F)F)cc1Cl
[6]
  AC50: 49.9 µM (active)
[7]
  IC50: 47.8 µM (inactive)
[8]
  AC50: 33.1 µM (active)

## O=C(Nc1ncccc1O)c1cc2ccccc2o1
[9]
  EC50: > 67.6 µM (inactive)
[10]
  AC50: 26 µM (active)

## COc1ccc(N2CCN(C3=C(Cl)C(=O)N(c4cccc(C)c4)C3=O)CC2)cc1
[11]
  IC50: > 50 µM (inconclusive)

## COCC(=O)Nc1ccc(Br)c(C)c1
[12]
  IC50: > 100 µM (active)

## Cc1cc(NC(=O)c2ccccc2)ncc1NC(=O)c1ccco1
[10]
  AC50: 26 µM (active)

## O=C1C(Cl)=C(N2CCN(CCOCCO)CC2)C(=O)N1c1cccc(C(F)(F)F)c1
[11]
  IC50: > 50 µM (inconclusive)

## N#C[C@@H]1[C@H](c2ccc(C#CC3CCCCC3)cc2)[C@@H](CO)N1S(=O)(=O)c1ccccc1
[13]
  AC50: 8.18 µM (active)
[14]
  AC50: 27.9 µM (active)
[15]
  AC50: 12.8 µM (active)

## O=C(CCN1CCc2ccccc21)c1ccc2c(c1)OCCO2
[16]
  EC50: 110 µM (active)
H4
  EC50: 46.1 µM (active)
Bcl-2-like protein 10
  IC50: 59.3 µM (inactive)
[17]
  EC50: 53.2 µM (active)

## COc1ccc(NC(C)c2cc(Cl)ccc2O)cc1 (stereo unspecified)
[12]
  IC50: > 100 µM (active)
[18]
  IC50: 69.1 µM (active)
[19]
  IC50: 13.9 µM (not active)
